For three compounds, melting point and IC50 results are on record in patent US9249155B2, “Thieno [2, 3-D] pyrimidine derivatives and their use to treat arrhythmia” (XENTION LIMITED, priority 2011, dated 2016).

Each structure is given as a SMILES string.

One data set deals with T1, hKv1.5 (Homo sapiens, UniProt P22460).
T1 construct: expressed in transfected cells; host or cells: CHO
Briefly: Kv1.5 electrophysiology, whole cell patch clamp. Type of data set: cell-based. The conditions noted are these: CHO stably transfected with hKv1.5, whole cell patch clamp, room temperature. As for the experimental part:
The ability of the compounds of the invention to inhibit the Kv1.5 potassium channel was measured in an electrophysiology experiment, using recombinant cells expressing the channel of interest in a whole cell patch clamp experiment.
The external bathing solution contained (in mM): 150 NaCl, 10 KCl, 3 MgCl2, 1 CaCl2, HEPES, pH 7.4. Patch pipettes were filled with an electrode solution of composition (in mM): 160 KCl, 0.5 MgCl2, 10 HEPES, 1 EGTA, pH 7.2 with KOH.
Compounds were dissolved in DMSO (100%) and freshly made up in the external bather at the desired concentration (final DMSO concentration=0.1%). All experiments were conducted at room temperature.
For whole-cell patch-clamp studies cells (CHO stably transfected with hKv1.5) were seeded onto glass coverslips before recordings were made. Cells were seeded in sterile 30 mm Petri dishes at a density to enable isolated cells to be selected for patch clamp experiments. The dishes were stored in a humidified, gassed (5% CO2) incubator at 37° C. until use.
Whole-cell patch-clamp recordings of membrane currents were made following gigaohm seal formation between the patch electrode and the cell using HEKA EPC-9/10 amplifiers controlled by Pulse Software (Ver8.5x/8.6x, HEKA, Germany). Coverslips seeded with cells were placed in a recording chamber mounted on the stage of an inverted microscope. During the experiment the cell of interest was continuously superfused with bather solution delivered via a cannula placed in close proximity to the cell to enable control of the extracellular solution environment. Only those cells with a current>500 pA were used for experiments. […]
Electrophysiology voltage-step protocols and analysis of data was performed as follows. […] Mean currents during 75-95% of the depolarising step to 0 mV were analysed using Pulsefit software (v8.x, HEKA, Germany). […] The test substance was allowed to equilibrate during which time voltage protocol was repeatedly applied and recorded. Percentage inhibition of the current in the presence of test substance was calculated relative to the control pre-drug value.
(Patch clamp records ionic current or voltage across a cell membrane.)

T1 sequence (P22460 whole entry): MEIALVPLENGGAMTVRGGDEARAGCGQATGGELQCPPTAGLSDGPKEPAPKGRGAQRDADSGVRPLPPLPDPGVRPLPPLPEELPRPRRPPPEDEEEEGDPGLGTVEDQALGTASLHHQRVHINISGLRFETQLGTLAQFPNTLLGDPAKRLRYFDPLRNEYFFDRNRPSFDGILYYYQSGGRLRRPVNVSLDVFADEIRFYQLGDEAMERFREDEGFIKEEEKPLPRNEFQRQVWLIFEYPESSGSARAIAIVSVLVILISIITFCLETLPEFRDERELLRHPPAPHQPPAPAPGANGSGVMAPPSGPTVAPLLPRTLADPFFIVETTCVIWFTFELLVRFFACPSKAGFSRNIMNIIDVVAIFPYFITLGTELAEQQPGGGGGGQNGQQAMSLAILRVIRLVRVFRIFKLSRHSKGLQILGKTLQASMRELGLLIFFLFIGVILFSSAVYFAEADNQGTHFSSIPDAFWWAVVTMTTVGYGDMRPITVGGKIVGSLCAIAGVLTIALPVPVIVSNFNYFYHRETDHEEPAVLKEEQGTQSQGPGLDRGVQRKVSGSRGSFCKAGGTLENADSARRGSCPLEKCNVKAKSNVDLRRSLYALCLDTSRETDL

For `O=C(NCCO)C1CCCN(c2nc(NCc3ccccn3)c3c(-c4ccccc4)csc3n2)C1` (racemic) [Racemate, 1-{5-Phenyl-4-[(pyridin-2-ylmethyl)-amino]-thieno[2,3-d]pyrimidin-2-yl}-piperidine-3carboxylic acid (2-hydroxy-ethyl)-amide], the melting point was in the range of 190 to 194 °C. The compound also came in with an IC50 at hKv1.5 of 9 nM.

Regarding `O=C(NCCO)[C@@H]1CCCN(c2nc(NCc3ccccn3)c3c(-c4ccccc4)csc3n2)C1` [(R) enantiomer (Ic), (R)-1-{5-Phenyl-4-[(pyridin-2-ylmethyl)-amino]-thieno[2,3-d]pyrimidin-2-yl}-piperidine-3-carboxylic acid (2-hydroxy-ethyl)-amide], the melting point fell in the range of 71 to 76 °C. For the same compound, on hKv1.5, the midpoint of inhibition, the IC50, lay at 5 nM.

Consider `O=C(NCCO)[C@H]1CCCN(c2nc(NCc3ccccn3)c3c(-c4ccccc4)csc3n2)C1` [(S) enantiomer (Ib), (S)-1-{5-Phenyl-4-[(pyridin-2-ylmethyl)-amino]-thieno[2,3-d]pyrimidin-2-yl}-piperidine-3-carboxylic acid (2-hydroxy-ethyl)-amide], for which the melting point is 61 to 65 °C. At hKv1.5, this compound came in with a concentration for half-maximal inhibition (IC50) of 27 nM.

A word on the melting point: it is the temperature, or range, at which the solid turns liquid. The IC50 is the concentration needed to halve the response being measured. Low readings indicate greater potency in that assay, high ones weaker potency in that assay.
